Measured values: ChEMBL document CHEMBL1201862, “PubChem BioAssay data set” (2004)
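Cells were grown in 96-well plates and exposed to each compound for 48 hours at five concentrations; endpoints were interpolated linearly between bracketing concentrations, or set to the highest concentration if not reached. GI50: concentration for 50% inhibition of growth.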 Calls of active or inactive are those of the source. Cut-off read from the data, not from the text of the source: active = GI50 up to about 1.1 µM and inactive = higher. Where a SMILES comes first, the peptide text is derived from it. The star is where a group is joined. Boc = CC(C)(C)OC(=O)*

Experiments:
Experiment in all cases: growth of human tumour cells (NCI), 48 h
[1] = tested on: 786-0
[2] = tested on: A498
[3] = tested on: A549
[4] = tested on: BT-549
[5] = tested on: CAKI-1
[6] = tested on: DU-145
[7] = tested on: M14
[8] = tested on: MOLT-4
[9] = tested on: OVCAR-3
[10] = tested on: OVCAR-5
[11] = tested on: OVCAR-8
[12] = tested on: RXF 393
[13] = tested on: SF-539
[14] = tested on: SK-MEL-28
[15] = tested on: SN12C
[16] = tested on: SR
[17] = tested on: SW-620
[18] = tested on: TK-10
[19] = tested on: U-251
[20] = tested on: HCC 2998

Measured: GI50

COC(=O)c1c(O)ccc2c1c1c(n2Cc2cc(OC)cc(OC)c2)C(=O)c2ccccc2C1
inactive: [1] 92 µM | [2] 92.3 µM | [3] 36.2 µM | [4] 55.5 µM | [5] 21.1 µM | [6] 53.3 µM | [7] 37.8 µM | [8] 58.1 µM | [9] 43.2 µM | [10] 18.4 µM | [11] 43.3 µM | [12] 19.7 µM | [13] 50.6 µM | [14] 16.1 µM | [15] 29.5 µM | [16] 13 µM | [17] 51.8 µM | [18] 52 µM | [19] 47.8 µM

CCOC(=O)[C@@]12C[C@](/C=C/OC)(O[Si](C)(C)C)[C@@]13c1cc(OC)c(OC)cc1CCN3C(=O)C2=O
inactive: [1] > 100 µM | [2] > 100 µM | [3] > 100 µM | [4] > 100 µM | [5] > 100 µM | [6] > 100 µM | [7] > 100 µM | [8] > 100 µM | [9] > 100 µM | [10] > 100 µM | [11] > 100 µM | [12] > 100 µM | [13] > 100 µM | [14] > 100 µM | [15] > 100 µM | [16] > 100 µM | [17] > 100 µM | [18] > 100 µM | [19] > 100 µM

CC(NC(=O)C1CCCN1C(=O)CNC(=O)OC(C)(C)C)C(=O)O (stereo not drawn) (Boc-Gly-Pro-Ala-OH; configuration not given here)
inactive: [1] > 100 µM | [3] > 100 µM | [4] > 100 µM | [5] > 100 µM | [6] > 100 µM | [20] > 100 µM | [7] > 100 µM | [8] > 100 µM | [9] > 100 µM | [10] > 100 µM | [11] > 100 µM | [12] > 100 µM | [13] > 100 µM | [14] > 100 µM | [15] > 100 µM | [16] > 100 µM | [17] > 100 µM | [18] > 100 µM | [19] > 100 µM

COC(=O)c1ccccc1CC1Cc2ccc3c(c2C1=O)CCC3 (stereo not drawn)
inactive: [1] 80.5 µM | [3] > 100 µM | [4] 34.7 µM | [5] 55.1 µM | [6] > 100 µM | [20] 28.2 µM | [7] 39.5 µM | [8] 25.1 µM | [9] > 100 µM | [10] > 100 µM | [11] 49.5 µM | [12] 35.4 µM | [13] > 100 µM | [14] 37.2 µM | [15] > 100 µM | [16] 31 µM | [17] 99.1 µM | [18] > 100 µM | [19] 51.1 µM

CC(C)c1c(O)ccc2c1CCC1C(C)(C)CCCC21C (stereo not drawn)
inactive: [1] 18.1 µM | [3] 17 µM | [4] 18.5 µM | [5] 16.3 µM | [6] 14.8 µM | [20] 22 µM | [7] 16.2 µM | [8] 19.1 µM | [9] 18.6 µM | [10] 14.6 µM | [11] 17.8 µM | [12] 15.1 µM | [13] 18.7 µM | [14] 21.3 µM | [15] 14.5 µM | [16] 19.5 µM | [17] 20 µM | [18] 20.7 µM | [19] 18 µM

O=C1CC2C(=O)C1C(C(=O)O)C2C(=O)O (stereo not drawn)
inactive: [1] > 100 µM | [2] > 100 µM | [3] > 100 µM | [4] > 100 µM | [5] > 100 µM | [6] > 100 µM | [7] > 100 µM | [8] > 100 µM | [9] > 100 µM | [10] > 100 µM | [11] > 100 µM | [12] > 100 µM | [13] > 100 µM | [14] > 100 µM | [15] > 100 µM | [16] > 100 µM | [17] > 100 µM | [18] > 100 µM | [19] > 100 µM

O=C(O)/C=C/C(=O)N1Cc2cc3ccccc3nc2C1
inactive: [1] > 100 µM | [3] > 100 µM | [4] > 100 µM | [5] > 100 µM | [6] > 100 µM | [20] > 100 µM | [7] > 100 µM | [8] > 100 µM | [9] > 100 µM | [10] > 100 µM | [11] > 100 µM | [12] > 100 µM | [13] > 100 µM | [14] > 100 µM | [15] > 100 µM | [16] > 100 µM | [17] > 100 µM | [18] > 100 µM | [19] > 100 µM

CC(C)OP(=O)(CCCCCCCCC/C=C/c1ccc2c(c1)OCCOCCOCCOCCO2)OC(C)C
inactive: [1] 3.78 µM | [3] 3.49 µM | [4] 3.03 µM | [5] 3.51 µM | [6] 4.59 µM | [20] 4.04 µM | [7] 3.52 µM | [8] 3.04 µM | [9] 2.61 µM | [10] 3.42 µM | [11] 3.15 µM | [12] 2.7 µM | [13] 2.62 µM | [14] 6.61 µM | [15] 3.36 µM | [16] 4.22 µM | [17] 3.82 µM | [18] 9.29 µM | [19] 2.75 µM

CC(C)(C)c1cc(CC2C(=O)c3ccccc3C2=O)cc(C(C)(C)C)c1O
inactive: [1] 3.9 µM | [2] 13.3 µM | [3] 8.59 µM | [4] 3.45 µM | [5] 3.22 µM | [6] 2.45 µM | [7] 2.69 µM | [8] 2.5 µM | [9] 2.89 µM | [10] 11.7 µM | [11] 3.05 µM | [13] 3.65 µM | [15] 4.11 µM | [16] 2.88 µM | [17] 2.51 µM | [18] 5.57 µM | [19] 3.87 µM

COC(=O)C1=C(O)C(C(=O)OC)[C@@]2(O)[C@@H](C(=O)OC)C(c3ccc(OC(=O)/C(=C/c4ccccc4)c4ccccc4)cc3)C[C@@H]1[C@@H]2C(=O)OC (stereo partly drawn)
inactive: [1] 6.46 µM | [2] 40.8 µM | [3] 69.2 µM | [4] > 100 µM | [5] 11.9 µM | [6] 20.5 µM | [7] 7.03 µM | [8] 3.72 µM | [9] 35.6 µM | [10] 80.4 µM | [11] 14.1 µM | [12] 9.71 µM | [13] 2.46 µM | [14] 81.5 µM | [15] 30.8 µM | [16] 6.73 µM | [17] 8.09 µM | [18] 13.2 µM | [19] 11.2 µM
